Laboratory results as given in patent US5652222A, “Selective inhibition of leukemic cell proliferation by bcr-abl antisense oligonucleotides” (Temple University-of The Commonwealth System of Higher …, priority 1993, dated 1997).

How the values were obtained:
[1] = test system: Philadelphia chromosome-positive blast cells of CML patients in blast crisis, L-6 (b2a2) type junction; assay: Colony formation of CML blast crisis patient cells expressing the b2a2 (L-6) junction; assay type: cell-based, human; details: for Number of Colonies, Antisense-treated: 40 μg/ml at start, 20 μg/ml 18 h later; for % Inhibition: number of colonies vs untreated
Procedure: Leukemia cells were obtained from the marrow of the posterior iliac crest of five CML patients in blast crisis. The cells were diluted 1:2 in Iscove's modified Dulbecco medium (IMDM) to form a cell suspension. Philadelphia chromosome-positive blast cells were isolated by Ficoll-Hypaque density gradient sedimentation to remove non-mononuclear cells. Accordingly, the bone marrow cell suspension was gently overlayed on a Histopaque density gradient (Sigma Chemical Co., St. Louis, Mo.) in a 2:1 ratio, and then spun down for 30 min. at 1500 rpm and 18° C. Cells remaining in the interface layer after centrifugation were collected using a Pasteur pipet, and washed with IMDM at 1000 rpm and […] for 10 min.
Cells plated into methyl cellulose semisolid media after 7-11 days of culture were recovered from the medium. Total RNA was isolated according to the procedure of Chomczynski et al, Anal. Biochem. 162, 156-159 (1987). The RNA ([…]) isolated from one patient having particularly exuberant cell growth was annealed with the 3' RT-PCR primer GCTTCACACC ATTCCCCATTGT (SEQ ID NO:10) complementary to 22 nucleotides of c-abl exon 2 for 30 minutes at 37° C. Following annealing of the 3' primer, the RNA was reverse transcribed with 500 units of Moloney murine leukemia virus reverse transcriptase at 37° C. for 1 hour. The reaction was stopped and the mixture diluted in 1 x Thermus aquaticus (Taq) polymerase buffer. A 5' primer, the 22 nucleotide oligomer CACAGCATTCCGCTGACCATCA (SEQ ID NO: 11) complementary to bcr exon 2 and additional c-abl exon 2 3' primer were added to a final concentration of 2 ng/μl each with 2.5 units of Taq polymerase for amplification of the cDNA fragments. Sixty cycles of PCR were performed in a Perkin Elmer Thermal Cycler by annealing at 55° C., synthesizing at 72° C. and denaturing at 95° C. The amplification product, corresponding to the b2a2 junction, was thereafter separated on a 2% agarose gel. The band containing the bcr-abl fragment was cut out and cleaned according to a standard technique utilizing a GENE-CLEAN™ kit (Bio 101, Inc.), cloned by blunt end ligation in the BLUESCRIPT SK vector (Stratagene Cloning Systems) linearized by SMA I digestion. Several individual clones were then sequenced using the SEQUENASE™ version 2.0 enzyme (United States Biochemical Corp., Cleveland, Ohio), according to the sequence protocol recommended by the manufacturer. Accordingly, the denatured bcr-abl DNA fragments were annealed with specific primers which flank the cloning site in the BLUESCRIPT SK vector, in the presence of SEQUENASE™ reaction buffer for 15 min. at 37° C. The primer-annealed fragments were incubated at room temperature with SEQUENASE™ version 2.0 enzyme and α-S^35 dAT at 37° C. Subsequently, labelled template-primer complexes were transferred to tubes containing A, T, C and G nucleotides (one nucleotide per tube) and incubated 5-30 min. at 37° C. The samples were then loaded on a previously prepared acrylamide gel, and run for approximately 10 hours. The sequencing gel was dryed, and the film exposed O/N. Sequence analysis of several of the individual clones identified the bcr-abl junction as having the cDNA sequence shown in FIG. 1 (SEQ ID NO:1). The arrow in the figure indicates the bcr-abl breakpoint junction, and the box delineates the 18 nucleotides corresponding to the junction, which forms a preferred target sequence for hybridization of antisense oligomer. The junction corresponds precisely to the L-6 type breakpoint reported by Shtivelman et al., Cell 47, 277 (1986), in which the bcr exon 2 is fused to c-abl exon 2.
In a similar manner, L-6 type junctions were identified in the remaining CML blast crisis patients by hybridization of RT-PCR amplification products derived from blast crisis CML RNA using a synthetic 18-mer GAAGGGCTTC TTCCTTAT (SEQ ID NO:3) specific for the 18-nucleotide target sequence of the L-6 bcr-abl junction. […]

[2] = test system: normal hematopoietic progenitor cells (normal bone marrow MNC); assay: CFU-GM colony formation of normal hematopoietic progenitor cells; assay type: cell-based, human; details: Table 3; 40 μg/ml at 0 h, 20 μg/ml 18 h later; 12 days; mean ± SD; control 263 ± 10
Excerpt: Normal bone marrow mononuclear cells (MNC) were obtained by aspiration from consenting volunteers and enriched for hematopoietic progenitors as previously reported by numerous investigators (Zamecnick et al., Proc. Natl. Acad. Sci. U.S.A. 83, 4143-4147 (1986); Caracciolo et al., J. Clin. Invest. 85, 55-61 (1990)). In brief, marrow cells were subjected to Ficoll-Hypaque density gradient sedimentation and then depleted of adherent monocyte-macrophage and T-lymphocytes by adherence to plastic Petri dishes and rosetting with neuraminidase-treated sheep red blood cells, respectively. Philadelphia chromosome-positive blast cells were isolated by Ficoll-Hypaque density gradient sedimentation from a CML patient in blast crisis (L-6 type junction). […] The residual non-blast cells had the morphological appearance of small lymphocytes. 25,000 MNC and 25,000 CML blast cells were combined and incubated with bcr-abl breakpoint-Specific antisense oligomer (SEQ ID NO:3) (40 μg/ml at h 0; 20 μg/ml 18 hours later) or with a 4 nucleotide mismatch bcr-abl antisense oligomer (SEQ ID NO:2) (40 μg/ml at 0 h; 20 μg/ml 18 hours later) or left untreated. […] At the end of the incubation period colonies were counted. […]

Substance: SEQ ID NO:3: synthetic 18-mer GAAGGGCTTC TTCCTTAT specific for the 18-nucleotide target sequence of the L-6 bcr-abl junction (antisense GAAGGGCTTCTTCCTTAT; chemistry not given here)
- colonies of blast cells formed ([1]; 10 days in semi-solid culture (FIG. 2)): very few colonies, with a much smaller number of cells
- Number of Colonies, Antisense-treated ([1]; Table 1, patient 1, untreated 450 ± 64): 112 ± 18 colonies
- Number of Colonies, Antisense-treated ([1]; Table 1, patient 2, untreated 324 ± 18): 62 ± 8 colonies
- % Inhibition ([1]; Table 1, patient 3): 90%
- Number of Colonies, Antisense-treated ([1]; Table 1, patient 4, untreated 212 ± 15): 80 ± 8 colonies
- Number of Colonies, Antisense-treated ([1]; Table 1, patient 5, untreated 380 ± 16): 70 ± 8 colonies
- % Inhibition ([1]; Table 1, patient 5): 82%
- inhibition of colony formation ([1]; five L-6 type junction patients, repeated experiments): 60 to 90%
- Colonies or Clusters, CFU-GM [2]: 253 ± 35 colonies or clusters
